# Reference: ChEMBL document CHEMBL4196088, “Induction of cell killing and autophagy by amphiphilic pyrrolidine derivatives on human pancreatic cancer cells” (Eur J Med Chem, 2018)
# System: PANC-1
# Assay: Induction of apoptosis in human PANC1 cells assessed as accumulation at sub-G0/G1 phase at 10 uM after 48 hrs by propidium iodide staining based flow cytometry (reference value: 0.2 to 2.9%)
# Format: functional
# Conditions: not given
row,Structure (SMILES),Activity [%]
1,CCCCCC/C=C/CCCCCCCCOC[C@H]1NC[C@H](O)[C@@H]1O,9.1

# System: PK9
# Assay: Induction of apoptosis in human PK9 cells assessed as accumulation at sub-G0/G1 phase at 10 uM after 24 hrs by propidium iodide staining based flow cytometry (reference value: 2.2%)
# Format: functional
# Conditions: not given
row,Structure (SMILES),Activity [%]
1,CCCCCC/C=C/CCCCCCCCOC[C@H]1NC[C@H](O)[C@@H]1O,3.4

# System: BXPC-3
# Assay: Induction of apoptosis in human BxPC3 cells assessed as accumulation at sub-G0/G1 phase harboring pSFFV-Bcl-XL at 20 uM after 48 hrs by propidium iodide staining based flow cytometry (reference value: 1.3%)
# Format: functional
# Conditions: not given
row,Structure (SMILES),Activity [%]
1,CCCCCC/C=C/CCCCCCCCOC[C@H]1NC[C@H](O)[C@@H]1O,5

# System: PANC-1
# Assay: Induction of apoptosis in human PANC1 cells assessed as accumulation at sub-G0/G1 phase at 20 uM after 72 hrs by propidium iodide staining based flow cytometry (reference value: 1.6 to 3.2%)
# Format: functional
# Conditions: not given
row,Structure (SMILES),Activity [%]
1,CCCCCC/C=C/CCCCCCCCOC[C@H]1NC[C@H](O)[C@@H]1O,33.7

# System: not listed separately
# Assay: Induction of apoptosis in HPNE cells assessed as accumulation at sub-G0/G1 phase at 10 uM after 24 hrs by propidium iodide staining based flow cytometry (reference value: 0.6%)
# Format: cell-based
# Conditions: human
row,Structure (SMILES),Activity [%]
1,CCCCCC/C=C/CCCCCCCCOC[C@H]1NC[C@H](O)[C@@H]1O,3.4

# System: BXPC-3
# Assay: Induction of apoptosis in human BxPC3 cells assessed as accumulation at sub-G0/G1 phase harboring pSFFV-Bcl-XL at 20 uM after 24 hrs by propidium iodide staining based flow cytometry (reference value: 1.2%)
# Format: functional
# Conditions: not given
row,Structure (SMILES),Activity [%]
1,CCCCCC/C=C/CCCCCCCCOC[C@H]1NC[C@H](O)[C@@H]1O,4.9

# System: PK9
# Assay: Induction of apoptosis in human PK9 cells assessed as accumulation at sub-G0/G1 phase at 20 uM after 72 hrs by propidium iodide staining based flow cytometry (reference value: 4%)
# Format: functional
# Conditions: not given
row,Structure (SMILES),Activity [%]
1,CCCCCC/C=C/CCCCCCCCOC[C@H]1NC[C@H](O)[C@@H]1O,5.7

# System: not listed separately
# Assay: Induction of apoptosis in HPNE cells assessed as accumulation at sub-G0/G1 phase at 10 uM after 48 hrs by propidium iodide staining based flow cytometry (reference value: 0.7%)
# Format: cell-based
# Conditions: human
row,Structure (SMILES),Activity [%]
1,CCCCCC/C=C/CCCCCCCCOC[C@H]1NC[C@H](O)[C@@H]1O,2

# System: PANC-1
# Assay: Induction of apoptosis in human PANC1 cells assessed as accumulation at sub-G0/G1 phase at 20 uM after 48 hrs by propidium iodide staining based flow cytometry (reference value: 0.2 to 2.9%)
# Format: functional
# Conditions: not given
row,Structure (SMILES),Activity [%]
1,CCCCCC/C=C/CCCCCCCCOC[C@H]1NC[C@H](O)[C@@H]1O,23.4

# System: BXPC-3
# Assay: Induction of apoptosis in human BxPC3 cells assessed as accumulation at sub-G0/G1 phase at 20 uM after 72 hrs by propidium iodide staining based flow cytometry (reference value: 3.4%)
# Format: functional
# Conditions: not given
row,Structure (SMILES),Activity [%]
1,CCCCCC/C=C/CCCCCCCCOC[C@H]1NC[C@H](O)[C@@H]1O,21.5

# System: MIA PaCa-2
# Assay: Growth inhibition of human MIAPaCa2 cells after 72 hrs by MTT assay
# Format: functional, cell-based
# Conditions: MIA PaCa-2, 72 h
row,Structure (SMILES),IC50 [µM]
1,CCCCCC/C=C/CCCCCCCCOC[C@H]1NC[C@H](O)[C@@H]1O,> 100

# System: BXPC-3
# Assay: Induction of apoptosis in human BxPC3 cells assessed as accumulation at sub-G0/G1 phase at 20 uM after 48 hrs by propidium iodide staining based flow cytometry (reference value: 2.8%)
# Format: functional
# Conditions: not given
row,Structure (SMILES),Activity [%]
1,CCCCCC/C=C/CCCCCCCCOC[C@H]1NC[C@H](O)[C@@H]1O,19.6

# System: PK9
# Assay: Induction of apoptosis in human PK9 cells assessed as accumulation at sub-G0/G1 phase at 20 uM after 24 hrs by propidium iodide staining based flow cytometry (reference value: 2.2%)
# Format: functional
# Conditions: not given
row,Structure (SMILES),Activity [%]
1,CCCCCC/C=C/CCCCCCCCOC[C@H]1NC[C@H](O)[C@@H]1O,2.2

# System: not listed separately
# Assay: Induction of apoptosis in HPNE cells assessed as accumulation at sub-G0/G1 phase at 20 uM after 72 hrs by propidium iodide staining based flow cytometry (reference value: 6.6%)
# Format: cell-based
# Conditions: human
row,Structure (SMILES),Activity [%]
1,CCCCCC/C=C/CCCCCCCCOC[C@H]1NC[C@H](O)[C@@H]1O,70.3

# System: SK-BR-3
# Assay: Growth inhibition of human SKBR3 cells after 72 hrs
# Format: functional, cell-based
# Conditions: SK-BR-3, 72 h
row,Structure (SMILES),IC50 [µM]
1,CCCCCC/C=C/CCCCCCCCOC[C@H]1NC[C@H](O)[C@@H]1O,10

# System: BXPC-3
# Assay: Induction of apoptosis in human BxPC3 cells assessed as accumulation at sub-G0/G1 phase harboring pSFFV-Bcl-XL at 20 uM after 72 hrs by propidium iodide staining based flow cytometry (reference value: 1.3%)
# Format: functional
# Conditions: not given
row,Structure (SMILES),Activity [%]
1,CCCCCC/C=C/CCCCCCCCOC[C@H]1NC[C@H](O)[C@@H]1O,3.8

# System: BXPC-3
# Assay: Induction of apoptosis in human BxPC3 cells harboring pSFFV-Bcl-XL assessed as accumulation at sub-G0/G1 phase at 10 uM after 72 hrs by propidium iodide staining based flow cytometry (reference value: 2%)
# Format: functional
# Conditions: not given
row,Structure (SMILES),Activity [%]
1,CCCCCC/C=C/CCCCCCCCOC[C@H]1NC[C@H](O)[C@@H]1O,3.8

# System: PANC-1
# Assay: Growth inhibition of human PANC1 cells after 72 hrs by XTT assay
# Format: functional, cell-based
# Conditions: PANC-1, 72 h
row,Structure (SMILES),IC50 [µM]
1,CCCCCC/C=C/CCCCCCCCOC[C@H]1NC[C@H](O)[C@@H]1O,80

# System: BXPC-3
# Assay: Induction of apoptosis in human BxPC3 cells assessed as accumulation at sub-G0/G1 phase at 10 uM after 48 hrs by propidium iodide staining based flow cytometry (reference value: 2.8%)
# Format: functional
# Conditions: not given
row,Structure (SMILES),Activity [%]
1,CCCCCC/C=C/CCCCCCCCOC[C@H]1NC[C@H](O)[C@@H]1O,7.3

# System: PK9
# Assay: Growth inhibition of human PK9 cells after 72 hrs by MTT assay
# Format: functional, cell-based
# Conditions: PK9, 72 h
row,Structure (SMILES),IC50 [µM]
1,CCCCCC/C=C/CCCCCCCCOC[C@H]1NC[C@H](O)[C@@H]1O,> 100

# System: BXPC-3
# Assay: Induction of apoptosis in human BxPC3 cells harboring pSFFV-Bcl-XL assessed as accumulation at sub-G0/G1 phase at 10 uM after 48 hrs by propidium iodide staining based flow cytometry (reference value: 1.9%)
# Format: functional
# Conditions: not given
row,Structure (SMILES),Activity [%]
1,CCCCCC/C=C/CCCCCCCCOC[C@H]1NC[C@H](O)[C@@H]1O,1.9

# System: not listed separately
# Assay: Induction of apoptosis in HPNE cells assessed as accumulation at sub-G0/G1 phase at 20 uM after 24 hrs by propidium iodide staining based flow cytometry (reference value: 0.6%)
# Format: cell-based
# Conditions: human
row,Structure (SMILES),Activity [%]
1,CCCCCC/C=C/CCCCCCCCOC[C@H]1NC[C@H](O)[C@@H]1O,46.9

# System: BXPC-3
# Assay: Induction of apoptosis in human BxPC3 cells assessed as accumulation at sub-G0/G1 phase at 10 uM after 72 hrs by propidium iodide staining based flow cytometry (reference value: 3.4%)
# Format: functional
# Conditions: not given
row,Structure (SMILES),Activity [%]
1,CCCCCC/C=C/CCCCCCCCOC[C@H]1NC[C@H](O)[C@@H]1O,7.8

# System: PK9
# Assay: Induction of apoptosis in human PK9 cells assessed as accumulation at sub-G0/G1 phase at 10 uM after 48 hrs by propidium iodide staining based flow cytometry (reference value: 3.8%)
# Format: functional
# Conditions: not given
row,Structure (SMILES),Activity [%]
1,CCCCCC/C=C/CCCCCCCCOC[C@H]1NC[C@H](O)[C@@H]1O,3.8

# System: PANC-1
# Assay: Induction of apoptosis in human PANC1 cells assessed as accumulation at sub-G0/G1 phase at 10 uM after 24 hrs by propidium iodide staining based flow cytometry (reference value: 0.6 to 0.7%)
# Format: functional
# Conditions: not given
row,Structure (SMILES),Activity [%]
1,CCCCCC/C=C/CCCCCCCCOC[C@H]1NC[C@H](O)[C@@H]1O,5.7

# System: BXPC-3
# Assay: Growth inhibition of human BxPC3 cells after 72 hrs by XTT assay
# Format: functional, cell-based
# Conditions: BXPC-3, 72 h
row,Structure (SMILES),IC50 [µM]
1,CCCCCC/C=C/CCCCCCCCOC[C@H]1NC[C@H](O)[C@@H]1O,> 100

# System: BXPC-3
# Assay: Induction of apoptosis in human BxPC3 cells assessed as accumulation at sub-G0/G1 phase at 20 uM after 24 hrs by propidium iodide staining based flow cytometry (reference value: 2.3%)
# Format: functional
# Conditions: not given
row,Structure (SMILES),Activity [%]
1,CCCCCC/C=C/CCCCCCCCOC[C@H]1NC[C@H](O)[C@@H]1O,9.5

# System: BXPC-3
# Assay: Induction of apoptosis in human BxPC3 cells harboring pSFFV-Bcl-XL assessed as accumulation at sub-G0/G1 phase at 10 uM after 24 hrs by propidium iodide staining based flow cytometry (reference value: 1.5%)
# Format: functional
# Conditions: not given
row,Structure (SMILES),Activity [%]
1,CCCCCC/C=C/CCCCCCCCOC[C@H]1NC[C@H](O)[C@@H]1O,4.3

# System: PK9
# Assay: Induction of apoptosis in human PK9 cells assessed as accumulation at sub-G0/G1 phase at 20 uM after 48 hrs by propidium iodide staining based flow cytometry (reference value: 3.8%)
# Format: functional
# Conditions: not given
row,Structure (SMILES),Activity [%]
1,CCCCCC/C=C/CCCCCCCCOC[C@H]1NC[C@H](O)[C@@H]1O,4.3

# System: not listed separately
# Assay: Induction of apoptosis in HPNE cells assessed as accumulation at sub-G0/G1 phase at 10 uM after 72 hrs by propidium iodide staining based flow cytometry (reference value: 6.6%)
# Format: cell-based
# Conditions: human
row,Structure (SMILES),Activity [%]
1,CCCCCC/C=C/CCCCCCCCOC[C@H]1NC[C@H](O)[C@@H]1O,2.5

# System: PANC-1
# Assay: Induction of apoptosis in human PANC1 cells assessed as accumulation at sub-G0/G1 phase at 20 uM after 24 hrs by propidium iodide staining based flow cytometry (reference value: 0.6 to 0.7%)
# Format: functional
# Conditions: not given
row,Structure (SMILES),Activity [%]
1,CCCCCC/C=C/CCCCCCCCOC[C@H]1NC[C@H](O)[C@@H]1O,7.9

# System: not listed separately
# Assay: Induction of apoptosis in HPNE cells assessed as accumulation at sub-G0/G1 phase at 20 uM after 48 hrs by propidium iodide staining based flow cytometry (reference value: 0.7%)
# Format: cell-based
# Conditions: human
row,Structure (SMILES),Activity [%]
1,CCCCCC/C=C/CCCCCCCCOC[C@H]1NC[C@H](O)[C@@H]1O,65.7

# System: PANC-1
# Assay: Induction of apoptosis in human PANC1 cells assessed as accumulation at sub-G0/G1 phase at 10 uM after 72 hrs by propidium iodide staining based flow cytometry (reference value: 1.6 to 3.2%)
# Format: functional
# Conditions: not given
row,Structure (SMILES),Activity [%]
1,CCCCCC/C=C/CCCCCCCCOC[C@H]1NC[C@H](O)[C@@H]1O,6.4

# System: PK9
# Assay: Induction of apoptosis in human PK9 cells assessed as accumulation at sub-G0/G1 phase at 10 uM after 72 hrs by propidium iodide staining based flow cytometry (reference value: 4%)
# Format: functional
# Conditions: not given
row,Structure (SMILES),Activity [%]
1,CCCCCC/C=C/CCCCCCCCOC[C@H]1NC[C@H](O)[C@@H]1O,2.7

# System: BXPC-3
# Assay: Induction of apoptosis in human BxPC3 cells assessed as accumulation at sub-G0/G1 phase at 10 uM after 24 hrs by propidium iodide staining based flow cytometry (reference value: 1.8%)
# Format: functional
# Conditions: not given
row,Structure (SMILES),Activity [%]
1,CCCCCC/C=C/CCCCCCCCOC[C@H]1NC[C@H](O)[C@@H]1O,5.3
